{"source": "patent US10935552B2", "about": "“Aie luminogens for visualization and treatment of cancer” (THE HONG KONG UNIVERSITY OF SCIENCE AND TECHNOLOGY, priority 2015, dated 2021)", "key": {"[1]": {"test_system": "HepG2 cells", "experiment": "Cell imaging, HepG2 cells", "format": "cell-based, human", "conditions": "HepG2, 200 nM, 20 and 10 mins", "description": "(§1) The PC-9, HepG2, and HCC827 cells were grown overnight on a 35 mm petri dish with a cover slip. The live cells were incubated with 200 nM of TPE-IQ-2O for 20 and 10 mins. In all the experiments, the cancer cells are fluorescent in solely staining.\n(§2) HepG2 cells (human hepatocarcinoma cell line), PC-9 cells (human lung adenocarcinoma cell line), Hela cells (human cervical carcinoma cell line), and LX2 cells (normal cell, human hepatic stellate cell line) were stained with 200 nM DPA-IQ for 10 min. Images were taken under the same equipment settings. Scale bar: 30 μm. Excitation wavelength: 400-440 nm."}, "[2]": {"test_system": "HeLa cells", "experiment": "Cell imaging under fluorescent microscope, HeLa cells", "format": "cell-based, human", "conditions": "200 nM", "description": "(§3) Cell culture: HeLa cells were cultured in the MEM containing 10% FBS and 1% antibiotics (100 units/mL penicillin and 100 µg/mL streptomycin) in a 5% CO2 humidity incubator at 37° C. COS-7, MDA-MB-231, MCF-7, and MDCK-II cells were culture in the DMEM containing 10% FBS and antibiotics (100 units/mL penicillin and 100 µg/mL streptomycin) in a 5% CO2 humidity incubator at 37° C.\n(§4) Cell imaging: two different kind of cells were grown overnight on a 35 mm petri dish with a cover slip. The live cells were incubated with 200 nM of TPE-IQ-2O for 1, 5, 10, and 20 mins. In a typical experiment, 2 μL of a 10 mM stock solution of TPE-IQ-2O in DMSO was diluted to 2 mL with cell culture medium, followed by further dilution to desired concentration. The cells were imaged under a fluorescent microscope (BX41 Microscope) using the same excitation and emission filters: excitation filter=400-440 nm, dichroic mirror=455 nm, and emission filter=465 nm long pass.\nTwo different kinds of cells were grown overnight on a 35 mm petri dish with a cover slip. The live cells were incubated with 200 nM of TPE-IQ-20 for 20, 10, 5, and 1 mins. The Hela cells were stained by TPE-IQ-2O; the COS-7 cells were stained by TPE-IQ-2O; the Hela cells and COS-7 cells were co-cultured and stained together by TPE-IQ-2O. Condition: 200 nM (Filter: both close; Channel 5; EX: 400-440 nm; Exposure time: bright field: 1000 ms Fluorescence: 1000 ms.\nTwo different kinds of cells were grown overnight on a 35 mm petri dish with a cover slip. The live cells were incubated with 200 nM of TPE-IQ-2O for 10 mins. The Hela cells were stained by TPE-IQ-2O; the MDCKII cells were stained by TPE-IQ-2O; the MDA-MB-231 cells and COS-7 cells were co-cultured and stained together by TPE-IQ-2O. Condition: 200 nM 10 mins (Filter: both close; Channel 5; EX: 400-440 nm; Exposure time: bright field: 1000 ms Fluorescence: 1000 ms.\nas §2"}, "[3]": {"test_system": "ROS", "experiment": "ROS generation under white light with H2DCF-DA indicator", "conditions": "white light irradiation; dye 10 mM, H2DCF-DA 5 mM, ex 488 nm", "description": "Fluorescence change of TPE-IQ-2O, H2DCF-DA (ROS indicator) and the mixture with different irradiation time of white light. […] Dye (TPE-IQ-2O): 10 mM; H2DCF-DA: 5 mM. Excitation wavelength: 488 nm."}, "[4]": {"test_system": "MCF-7 cells", "experiment": "Cell imaging under fluorescent microscope, MCF-7 cells", "format": "cell-based", "conditions": "200 nM", "description": "as §3, §4\n(§5) Two different kinds of cells were grown overnight on a 35 mm petri dish with a cover slip. The live cells were incubated with 200 nM of TPE-IQ-2O for 20, 10, and 5 mins. […] Condition: 200 nM (Filter: both close; Channel 5; EX: 400-440 nm; Exposure time: bright field: 1000 ms Fluorescence: 1000 ms."}, "[5]": {"test_system": "MDA-MB-231 cells", "experiment": "Cell imaging under fluorescent microscope, MDA-MB-231 cells", "format": "cell-based", "conditions": "200 nM", "description": "as §3, §4\nas §5, with “10, 5,” for “10,”, “and 1” for “and 5”"}, "[6]": {"test_system": "HCC827 cells", "experiment": "Cell imaging, HCC827 cells", "format": "cell-based", "conditions": "HCC827, 200 nM, 20 and 10 mins", "description": "as §1"}, "[7]": {"test_system": "LX2 cells", "experiment": "Cell imaging, LX2 normal cells", "format": "cell-based, human", "conditions": "LX2, 200 nM, 20 and 10 mins", "description": "The LX2 cells were grown overnight on a 35 mm petri dish with a cover slip. The live cells were incubated with 200 nM of TPE-IQ-2O for 20 and 10 mins.\nas §2"}}}
{"smiles": "CCC[n+]1cc2ccc(C(=C(c3ccc(OC)cc3)c3ccc(OC)cc3)c3ccccc3)cc2c(-c2ccccc2)c1-c1ccccc1", "note": "[TPE-IQ-2O, 6-(2,2-bis(4-methoxyphenyl)-1-phenylvinyl)-3,4-diphenyl-2-propylisoquinolin-2-ium]", "values": [{"measurement": "Fluorescence of stained cells", "setting": "[1]", "value": "fluorescent"}, {"measurement": "Fluorescence in co-culture", "setting": "[2]; HeLa and COS-7 co-cultured and stained together", "value": "fluorescence only from the Hela cancer cell"}, {"measurement": "Fluorescence in co-culture", "setting": "[2]; HeLa and MDCK-II grown in the same environment, 10 mins", "value": "fluorescence only from the Hela cancer cell"}, {"measurement": "Fluorescence of stained cells", "setting": "[2]; HeLa stained alone, 1-20 min", "value": "fluorescent"}, {"measurement": "ROS generation (H2DCF-DA fluorescence)", "setting": "[3]", "value": "continuous ROS generation"}, {"measurement": "Fluorescence in co-culture", "setting": "[4]; MCF-7 and COS-7 co-cultured and stained together", "value": "fluorescence only from the MCF-7 cancer cell"}, {"measurement": "Fluorescence of stained cells", "setting": "[4]; MCF-7 stained alone, 5-20 min", "value": "fluorescent"}, {"measurement": "Fluorescence in co-culture", "setting": "[5]; MDA-MB-231 and COS-7 co-cultured and stained together", "value": "fluorescence only from the MDA-MB-231 cancer cell"}, {"measurement": "Fluorescence of stained cells", "setting": "[5]; MDA-MB-231 stained alone, 1-20 min", "value": "fluorescent"}, {"measurement": "Fluorescence of stained cells", "setting": "[6]", "value": "fluorescent"}, {"measurement": "Fluorescence of stained cells", "setting": "[7]", "value": "no obvious fluorescence"}]}
